This note sets out measurements from patent publication US20130149250A1, “HYPERPOLARIZED AGENTS FOR MRI CHARACTERIZATION OF REDOX SYSTEMS IN VIVO” (The Regents of the University of California, priority 2011, published 2013).

Entries after “also recorded” stand apart in the source; their conditions may differ.

Data set [1] relates to TRAMP tumors. As to conditions: TRAMP mice, PET 50 minutes post injection.
Description: FDG-PET: PET scans were performed on a small animal PET/CT scanner (Inveon, Siemens Healthcare, Malvern, Pa.). Mice were fasted overnight, anesthetized, and injected intravenously with 150-170 uCi FDG in 0.1-0.2 mL saline. PET images were acquired 50 minutes post injection in one 600 second frame. CT images were acquired in 120 projections of continuous rotation to cover 220° with x-ray tube operating at 80 kVp, 0.5 mA, and 175 ms exposure time. The matrix size of the reconstructed CT images was 512×512×662 with an isotropic voxel size of 0.191×0.191×0.191 mm^3 PET images were reconstructed using a manufacturer-provided ordered subsets expectation maximization (OS-EM) algorithm resulting in a 128×128×159 matrices with a voxel size of 0.776×0.776×0.796 mm^3 ROIs were drawn in both the tumors and surrounding tissue to calculate relative tumor signals.
Data set [2] in a line: T1 studies of hyperpolarized ascorbates on a 3 T MRI scanner. In kind it is physicochemical. As to conditions: spin-lattice relaxation of C1 carbon at 3 T; mean±SD. On the procedure:
(§1) The RF coil used in these experiments was a dual-tuned ^1H-^13C coil with a quadrature ^13C channel and linear ^1H channel construction used in ^13C mouse imaging studies. ^13C MRSI studies were carried out as previously published. 350 μl (mice) or 2 mL (rats) of a hyperpolarized 15 mM [1-^13C] DHA solution were injected similar to previously described methods for [1-^13C]pyruvate. Similar experiments were performed on a set of normal mice using hyperpolarized [1-^13C] Vitamin C at 50 mM.
(§2) In vitro methods to interrogate redox chemistry have relied on designer redox-sensitive fluorescent proteins (yellow- or green fluorescent protein) incorporating an artificial dithiol-disulfide pair, or on detection of ROS themselves via chemical switching. In general, fluorescent probes have limited clinical translation given poor tissue penetration; making MR-compatible hyperpolarized ^13C probes an attractive alternative. […] The material was polarized by using a DNP approach and dissolved with a hot water/EDTA solution, with T1's calculated as previously described. […] Vitamin C carbons are tabulated at both 11.7 T and 3 T, with the longest recorded T1 that of [1-^13C] […] Vitamin C were measured as 5.9±0.5% and 3.6±0.1% respectively, representing signal enhancements on the order of approximately 24,000 and 15,000-fold relative to thermal equilibrium at 3 T. […]

Data set [3] in a line: 11.7 T NMR studies (T1 of hyperpolarized ascorbates). The data set is classed as physicochemical. As to conditions: spin-lattice relaxation of C1 carbon at 11.7 T; mean±SD. As for the experimental part:
NMR studies were performed on an 11.7 T Varian NOVA spectrometer (125 MHz ^13C, Varian Instruments) using a 10 mm ^15N/^31P/^13C broadband direct detect probe. Thermal and dynamic hyperpolarized spectra for [1-^13C] DHA and [1-^13C] Vitamin C were obtained as previously described, and used to calculate T1's and signal enhancements. For NMR studies of the reduction of [1-^13C] DHA to [1-^13C] Vitamin C, hyperpolarized [1-^13C] DHA was reacted with an excess of sodium cyanoborohydride (NaBH3CN).
as §2

Data set [4] is described as follows: DNP hyperpolarization (HyperSense, OX063 trityl radical): build-up and polarization. In kind it is physicochemical. The conditions noted are these: for Percent Polarization: DNP, 15 mM OX063; for Percent Polarization / Buildup Constant: mean±SD; for Buildup Constant: solid-state build-up constant.
Data set [5] relates to normal mice. Kind of data set: Dynamic 13C MR spectroscopy after injection of hyperpolarized probe in normal mice. In kind it is in vivo, mouse. On the procedure: as §1
Evidence of in vivo transformation was determining having obtained data validating hyperpolarized [1-^13C] DHA as a redox probe. The transport of DHA in vivo occurs by a mechanism analogous to that of glucose, by facilitated diffusion using GLUT1, GLUT3, and GLUT4. Since glucose is known to compete with the uptake of DHA, in vivo experiments were performed on animals (mice and rats) fasted overnight. […] Dynamic MRSI studies were carried out as previously published. 350 μl of a hyperpolarized 15 mM [1-^13C] DHA solution were injected similar to previously described methods for [1-^13C] pyruvate, in normal mice with a ^13C urea phantom present for chemical shift reference. In a separate set of normal mice, similar experiments were performed using hyperpolarized [1-^13C] Vitamin C at a slightly higher concentration, 50 mM. […] DHA in a normal mouse. The DHA resonance at 174 ppm reached a maximum at 19±1.7 secs post injection. […] Vitamin C in vivo. This chemical shift was confirmed both in vitro at neutral pH using ^13C urea as a reference, as well as in vivo with hyperpolarized [1-^13C] Vitamin C itself injected in a separate animal.

A further data set concerns TRAMP mice. As to conditions: mouse, in vivo. As for the experimental part:
as §1
(§3) Tissues with high exposure to environmental toxins, namely the liver, kidney and lungs, are known to be rich in GSH and were considered the most likely source for the hyperpolarized [1-^13C] Vitamin C signal observed in vivo. In addition, a contribution from highly glycolytic tissues was anticipated, given the rapid transport properties of dehydroascorbate. Analogous to experiments performed previously using hyperpolarized [1-^13C]pyruvate, 3D MRSI studies were conducted on a series of normal mice (n=3), TRAMP mice (n=3), and rats (n=3) using a dual-tuned RF coil.

In data set [6] the test system is normal mice. The conditions noted are these: mouse, in vivo. On the procedure: as §1, §3
The subject of the next data set is rat brains. As to conditions: in vivo. As for the experimental part:
as §1, §3

Another data set deals with MCD mouse liver. In words: HP DHA 13C MRSI of liver in methionine choline deficient (MCD) diet NAFLD mouse model. In kind it is in vivo. As for the experimental part: Prior to and post diet, high-resolution T2 and fat-water imaging was conducted at 14 T using a Varian WB600 micro-imager and 40 mm 1H millipede coil (Varian Instruments, Palo Alto, Calif.). Lipid percentage maps were calculated from fat and water images acquired using a conventional spin-echo sequence using the Dixon method. 350 μL of hyperpolarized DHA was injected each mouse (n=4) at baseline and 2 weeks of MCD diet using a Hypersense (Oxford Instruments). 13C MRSI data was acquired using an EPSI readout, variable flip angle scheme, matrix size 16×8×8 and final voxel resolution of 6 mm isotropic on a 3 T GE MRI (GE Healthcare, Waukesha, Wis.) equipped with a multinuclear package and dual-tuned 1H-^13C imaging coil. […] Ratios of HP DHA and VitC were calculated from the peak integrals in 3D MRSI data. Mice were then sacrificed and liver tissue was sectioned for staining with hematoxylin and eosin (H&E, structure) and Oil Red (lipid presence). Livers of normal mice were used for histologic comparison.

For data set [7], the system named is TRAMP tumors. In words: HP [1-13C] DHA 3D MRSI in TRAMP mice (Example 4). The data set is classed as in vivo, mouse. From the text: Hyperpolarization and dissolution of [1-^13C] DHA: [1-^13C] DHA dimer was polarized and dissolved.

For `O=C[C@H]([18F])[C@@H](O)[C@H](O)[C@H](O)CO` [FDG, 2-18F-2-deoxy-D-glucose], in the data set on TRAMP tumors [1], the “18F signal in regions of tumor relative to surrounding regions” value is 6.8±3.6.
Take `O=[13C]1O[C@H]([C@@H](O)CO)C(O)=C1O` [[1-^13C] Vitamin C, [1-^13C] ascorbic acid]: the “3T T1” value in data set [2] worked out at 29.2 ± 2.5 s. Further, the “11.7T T1” value in [3] was 16.0 ± 0.8 s. In [4], the “Percent Polarization” value was determined as 3.6±0.1% and the “Buildup Constant” value is reported as 1756 ± 97 s. Moreover, the “in vivo oxidation of hyperpolarized [1-13C] Vitamin C to [1-13C] DHA” value in the data set on normal mice [5] (50 mM hyperpolarized [1-13C] Vitamin C, normal mice) is given as “trace oxidation; also recorded: trace conversion”.
In the case of `O=C1C(=O)[13C](=O)O[C@@H]1[C@@H](O)CO` [[1-^13C] DHA, [1-^13C] dehydroascorbate], the “11.7T T1” value in data set [3] is 20.5 ± 0.9 s. For the same compound, in [4], the “Percent Polarization” value was determined as 5.9±0.5%. Also, the “signal enhancement relative to thermal equilibrium” value in [4] (at 3 T) is listed as “approximately 24,000 fold”. For the same compound, the “Buildup Constant” value in data set [4] amounted to 1120 ± 50 s. Further, the “time of maximum of DHA resonance (174 ppm) post injection” value in the data set with normal mice [5] (mouse, in vivo) was 19 ± 1.7 s. For the same compound, the “time of maximum of metabolite resonance (177.8 ppm, [1-13C] Vitamin C)” value with normal mice [5] (mouse, in vivo) came out at 29 ± 1.7 s. The “VitC/Total Carbon” value is listed as 0.29±0.09 with TRAMP mice and 0.51±0.1 with rat brains. For the same compound, the “Vitamin C signal” value in the data set on normal mice [6] is on record as “no Vitamin C signal was observed”. For the same compound, the VitC/DHA ratio in the data set on MCD mouse liver (after 2 weeks on MCD diet) came out at 0.46±0.1; in the data set on MCD mouse liver (baseline), 0.98±0.09. Moreover, the figures for the “VitC/VitC+DHA” value with MCD mouse liver (after 2 weeks on MCD diet) and in the data set on MCD mouse liver (baseline (normal liver)) were 0.30±0.5 and 0.49±02, respectively. Further, in the data set with MCD mouse liver (after 2 weeks on MCD diet, P=0.005), the “decrease in the VitC/DHA ratio from baseline” value came out at 92%. The “decrease in the VitC/VitC+DHA ratio from baseline” value in the data set with MCD mouse liver (after 2 weeks on MCD diet, P=0.01) is given as 48%. In the data set with TRAMP tumors [7] (TRAMP mice), the “Total HP 13C in tumors relative to surrounding tissue” value came to 2.1±0.4. Besides, the “tumor HP VitC/[VitC+DHA] relative to surrounding tissue” value in the data set with TRAMP tumors [7] (TRAMP mice) came out at 7.0±2.3. The “HP VitC (ratio of VitC to total HP signal)” value with TRAMP tumors [7] (TRAMP tumors (N=4)) stood at 0.23±0.03; in the data set with TRAMP tumors [7] (benign prostate, P=0.001), 0.06±0.03; with TRAMP tumors [7] (surrounding tissues, P=0.005), 0.05±0.02.
